Where “and” joins values, the source holds several entries; their conditions need not be identical. Equal values may be shown once. Entries after “also recorded” stand apart in the source; their conditions may differ.
Legend:
Assay type in all cases: in vivo
mice = test: Rota-Rod motor performance, CFA injected mice; details: i.t., after the 48 hour measurement post CFA
Method: To first evaluate the effects of CFA injection on motor coordination, a group of 10 animals were tested on the Rotamex (Columbus Instruments Rotamex 4/8 instrument) for performance. Animals were trained three days prior to undergoing 3-5 minute trials on an accelerating rotating rod (0-20 RPMs). Motor performance was evaluated at 2, 4, 6, 24 and 48 hours post injection. Compound 4c was then injected i.t. and the motor performance was evaluated at 5 and 20 minutes. The time to the first fall were recorded and compared with controls (Kovacs K J, et al., Pain, 2008, 136, 75-84). The results for compound 4c are illustrated in FIG. 10.

LPS pretreated mice [1] = test: Acute (24 hour) tolerance, tail flick, LPS pretreated mice; details: for Tolerance: 24 hours
Method: (§1) Acute tolerance utilizing the radiant tail flick assay was measured by comparing the ED80-90 dose on day 1 to the same dose measured 24 hours later on the same mouse. For the LPS pretreated mice, no additional LPS was given to the mice for the acute tolerance test. […] However, the effect was less robust 72 hours after the initial LPS injection. Thus confirming that the acute tolerance test was accurate for the LPS pretreated mice.

control mice [2] = test: Radiant tail flick antinociception, control (not pretreated) mice
Method: (§2) Compounds were dissolved in 10% DMSO and then diluted to less than 1% DMSO in the test solutions. […] Compounds were administered in a 5-μl volume in conscious mice, either i.c.v. (Haley T J & McCormick W G, Br J Pharmacol Chemother, 1957, 12(1), 12-15) or i.t. (Hylden J L K & Wilcox G L, Eur. J. Pharmacol., 1980, 67(2-3), 313-316). Peak times were determined by comparing the percent maximal possible effect (% MPE) at 5, 10, 20 and 60 minutes after injection.
(§3) The tail flick assay is used first to test for antinociception as described by D'Amour and Smith (D'AMOUR FE & SMITH DL (1941) J. Pharmacol. Exp. Ther. 72(1):74-79) and modified by Dewey et al. (Dewey W L, Harris L S, Howes J F, & Nuite JA (1970) J. Pharmacol. Exp. Ther. 175(2):435-442). For the measurement of the tail-flick latency, mice are wrapped in a light cloth and held gently in one hand with the tail positioned in the apparatus (Tail Flick Analgesia Meter, Columbus Instruments, Columbus, Ohio) for radiant heat stimulus. The tail-flick response is elicited by applying radiant heat to the dorsal side of the tail. The intensity of the heat is set so that the mouse flicks its tail within 2 to 3 seconds. The test latency is measured before drug treatment (control) and again after the drug treatment (test) at the peak time of the compound; a 10 second maximum cut-off time is used to prevent damage to the tail. Antinociception is quantified according to the Harris L S & Pierson A K, J. Pharmacol. Exp. Ther., 1964, 143(2):141-148, as the percent maximal possible effect (% MPE), which is calculated as: % MPE=(Test−Control/10−Control)×100.
(§4) At least three groups of four to ten mice are used for each dose response curve. ED50 values with 95% confidence intervals (C.I.) are computed with GraphPad Prism 4 by using nonlinear regression methods.

LPS pretreated mice [3] = test: Radiant tail flick antinociception, LPS pretreated mice
Method: as §2
The first group mice were pretreated with lipopolysaccaride (LPS, 1 mg/kg, i.p. from Escherichia coli 0111:B4; Sigma-Aldrich, St. Louis, Mo.) for 24 hours before testing for antinociception of compounds 2-6 (Seo Y-J, et al., Pharmacol., Biochem. Behav., 2008, 91, 121-127). This group was compared to a group without pretreatment.
as §3, §4

live mice = test: Respiratory depression (Mouse Ox O2 saturation); details: for % of mice with O2 Saturation less than 90%: i.t., LPS
Method: Respiratory depression was measured in live mice using the Mouse Ox (small animal Oximeter from STARR Life Sciences Corp, Oakmont, Pa.). CollarClip™—(Un-Anesthetized Neck Sensor) for mice was used as the site for measuring the data. Day one of each experiment involved training the animals using a disposable CollarClip™. The collar was left on for approximately one hour. […] Mice were monitored for a 60-minute period, with measurements 10-20-30 and 60 minutes.
Respiratory depression was measured in live mice using the Mouse Ox (small animal Oximeter from STARR Life Sciences Corp, Oakmont, Pa.). CollarClip™ (Un-Anesthetized Neck Sensor) for mice was used as the site for measuring the data.
Day one of each experiment involved training the animals using a disposable CollarClip™. The collar was left on for approximately one hour.
Mice were monitored for a 60-minute period, with measurements 10-20-30 and 60 minutes.

control mice [4] = test: Acute (24 hour) tolerance, tail flick, control mice; details: controls
Method: as §1

With Cc1cccc(C#Cc2cccc(OCCNC(=O)COCC(=O)NCCCCCNC(=O)COCC(=O)N[C@H]3CC[C@@]4(O)C5Cc6ccc(O)c7c6[C@@]4(CCN5C)[C@H]3O7)c2)n1 [Compound 4c, N-((4aS,7S,7aR,12bS)-4a,9-dihydroxy-3-methyl-2,3,4,4a,5,6,7,7a-octahydro-1H-4,12-methanobenzofuro[3,2-e]isoquinolin-7-yl)-2-((1-(3-((6-methylpyridin-2-yl)ethynyl)phenoxy)-4,8,16-trioxo-6-oxa-3,9,15-triazaheptadecan-17-yl)oxy)acetamide] the “time on the Rotamex (time to first fall)” value (mice) was “stayed on the Rotomex for a longer period of time”, the “% MPE remaining in 24 hour tolerance test” value (LPS pretreated mice [1]; i.c.v., 24 hour) was “Still was 40% MPE” and the Tolerance (LPS pretreated mice [1]; i.c.v.) was 24 hour tolerance. For the same molecule, the Tolerance (LPS pretreated mice [1]; i.t.) was “without tolerance; also recorded: No Tolerance”, the agonist character (control mice [2]; control mice, i.c.v.) was “partial agonist” and the “% MPE” value (control mice [2]; controls, i.c.v., 250 pmol/mouse) was 71 ± 10% MPE. For the same molecule, the “ED50 (CI) i.t.” value (control mice [2]; controls, i.t., tail flick) was 38.70 pmol/mouse, the “ED50 (CI) i.c.v.” value (LPS pretreated mice [3]; LPS pretreated (1 mg/kg 24 hours i.p.), i.c.v.) was 374.9 pmol/mouse and the “ED50 (CI) i.t.” value (LPS pretreated mice [3]; LPS pretreated (1 mg/kg 24 hours i.p.), i.t.) was < 9 fmol/mouse and 9 fmol/mouse and 8.83 fmol/mouse. The antinociception (LPS pretreated mice [3]; LPS pretreated, tail flick, dose of the acute tolerance test) was 97%, the safety margin (live mice; compared with morphine) was “greater safety margin than morphine” and the therapeutic index (live mice; estimated) was “greater than a million”. For the same molecule, the “% of mice with O2 Saturation less than 90%” value (live mice; dose 50,000 times the ED90) was 0%, the “% of mice with O2 Saturation less than 90%” value (live mice; dose 100,000 times the ED90) was 100% and the respiratory depression (live mice; mouse, in vivo) was “no tolerance or respiratory depression”. For the same molecule, the Tolerance (control mice [4]; i.c.v.) was “No Tolerance” and the Tolerance (control mice [4]; i.t.) was “No Tolerance”.
